pIC50: −log10 of the molar value. Read-outs that look alike come from different tables or passages of the source.
How the values were obtained:
[1] = system: U2OS cells stably expressing tfLC3; format: cell-based; conditions: for autophagy inhibition at 3 μM: FIG. 10B
Protocol: U2OS cells stably expressing tfLC3 were seeded at 50,000 cells per well in 5A McCoy's with 10% FBS on number 1.5 coverglass in 24-well tissue culture dishes. After 24 hours, cells were treated with known autophagy controls rapamycin [100 nM] (Millipore, 553210-10 mg), bafilomycin A1 [100 nM] (AG Scientific, B-1183), AZD-8055 [100 nM](Selleck Chemicals, S1555), and CQ [50 μM] as well as autophagy inhibitors (CQ, QN, Example 7, and Example 27) at doses of 0.1 μM, 0.25 μM, 0.5 μM, 1 μM, 5 μM, 15 μM, 25 μM, and 50 μM for three hours. Cells were washed with 1×PBS, fixed with 3.7% formaldehyde, and nuclei were stained with Hoechst 33342 (2 μg/mL). Coverglass was inverted onto microscope slides using mounting gel. Cells were imaged using a 60× oil-immersion objective on a Nikon Eclipse Ti fluorescent microscope and 10 images at each dose were taken for quantification. Image processing and quantification were completed with the Nikon NIS Elements software. To quantify, images were deconvolved using a 2D blind deconvolution function with one iteration and settings of normal cell thickness and normal noise level. Regions of interest (ROI) were drawn around the edges of each cell. Intensity thresholds were set to include all pixels equal to or greater than the intensity above the mean background fluorescence using the separation feature and restrictions set for puncta size (FIG. 9). Objects within the threshold for each ROI were quantified using an automated object count function and exported for analysis. Although other parameters were also collected, the mean intensity of the objects was averaged between the 10 images of each dose, or approximately 50 cells (FIGS. 9B and 9C). Representative images were chosen for each dose and the lookup table (LUT) brightness' were set based on the mean intensity of the DMSO control (FIGS. 8A and 10A). The mean intensity of each image was divided by the mean intensity of the DMSO control to control for brightness and the LUTs were adjusted by the percent difference to avoid background and for consistent visualization. All other settings (gain, exposure time, and lamp strength) were kept the same across all conditions. […] Mean intensity was further chosen for quantification as it accurately represents both the increase in puncta number and area when the accumulation of autophagosomes partially fuse (FIG. 9C, 9D). Quantification of the red channel (RFP-LC3 puncta) was performed to determine the total autophagic vesicle population (both autophagosomes and autolysosomes).
Autophagy inhibition can be measured by fluorescent microscopy using cells expressing a tandem fluorescent (RFP-GFP) labeled LC3 sensor (tfLC3). Upon autophagosome nucleation, LC3 is localized to the autophagic membrane and the overlapping GFP and RFP fluorescence appears as yellow puncta. After the autophagosome matures, it fuses with the lysosome, forming an autolysosome. The GFP in this LC3 sensor is pH labile and becomes quenched by the acidic environment of the autolysosome. However, the RFP remains stable; therefore, autolysosomes are indicated by red puncta. Accordingly, when autophagy is inhibited at the final stage (completion), the abundance of yellow puncta is expected to increase proportionally to the level of autophagy inhibition.
Cells were then fixed and imaged by fluorescent microscopy.

[2] = system: A375 melanoma cell line; assay: Cell viability (IC50) screen, CellTiter Glo, A375; format: cell-based; conditions: Homo sapiens
Protocol: U2OS cells were seeded at 500 cells per well in 5A McCoy's with 10% FBS in 96-well clear bottom, black-walled tissue culture plates. All melanoma cell lines (A375, UACC-91, UACC-257, UACC-502, UACC-903, UACC-1308, UACC-1940, UACC-2534, and UACC-3291) were seeded at 5,000 cells per well in RPMI 1640 with 10% FBS in 96-well clear bottom, black-walled tissue culture plates. After 24 hour incubation, cells were treated with VATG compounds in triplicate with a 10-point half log dose response from […] for 24 and 48 hours. Medium was removed and 2× CellTiter Glo (Promega, G7571) reagent mixed 1:1 with Opti-MEM (Invitrogen, 31985062) was added at 100 μL per well and incubated at room temperature for 15 minutes while rocking. 75 μL per well was moved to a white-walled 96-well plate and luminescence quantified using the 96 LUM program on an EnVision plate reader (PerkinElmer) and exported for analysis. All triplicate data points were averaged and luminescent readings for each treatment were normalized to vehicle control for change in viability. Dose response curves were input into SigmaPlot for IC50 calculations (Systat Software Inc).

[3] = system: A375 cells; format: cell-based, human; conditions: for Relative Growth Inhibition Compound A / IC10 concentration: A375 soft agar; for Relative Growth Inhibition Compound A: single compound at IC10; for IC10 concentration: treated every other day for three weeks, single agent; for expected (additive) reduction of colony formation: combination with PLX-4032, Bliss Independence prediction; for reduction of colony formation: combinatorial treatment with PLX-4032, each at IC10, FIG. 18A
Text: After three weeks of treatment, cells were fixed and stained in 1% paraformaldehyde in 1×PBS containing 0.005% crystal violet overnight. Cells were destained with multiple washes of 1×PBS to remove background staining. Plates were scanned and images quantified using Nikon NIS Elements software. To quantify, each image was sharpened and an ROI of equal size drawn around each well. Intensity thresholds were set to include all pixels equal to or greater than the intensity of the mean background fluorescence. Objects within the threshold of each ROI were quantified using an automated object count function and exported for analysis. Object number was quantified to denote total colony formation. […] Additivity was established when the expected viability determined by the Bliss independence model was equal to the actual viability. This model was chosen since the effects of both compounds are mutually non-exclusive and follow first order Michaelis-Menten kinetics.
To determine if the effects of each combination were more than, less than, or equal to additive, predictions for additivity were made using the Bliss Independence (Table 7), as disclosed in Yan H, Zhang B, Li S, Zhao Q. A formal model for analyzing drug combination effects and its application in TNF-alpha-induced NFkappaB pathway. BMC Syst. […] Drug combination studies and their synergy quantification using the Chou-Talalay method.

[4] = system: P. falciparum K1 (CQ resistant); assay: microbe, parasite or virus in culture; format: cell-based, Plasmodium falciparum; conditions: for antimalarial activity score: K1 strain; for pIC50: Plasmodium falciparum, K1, Erythrocyte, read-out: Antimalarial activity (IC50) P. falciparum K1 (CQ resistant)
Protocol: In this example, compounds of Formula A, Formula A^1, Formula A^2, Formula A^3 or pharmaceutically acceptable salts thereof, are tested in Plasmodium sp infected cells to determine the effectiveness of these compounds to determine their anti-malarial activity. […] After 24 hours, plates were harvested with a Betaplate™ cell harvester (Wallac, Zurich Switzerland) which transferred the red blood cells onto a glass fiber filter and washed with distilled water. Dried filters were inserted into a plastic foil with 10 mL of scintillation fluid and counted in a Betaplate™ liquid scintillation counter (Wallac, Zurich Switzerland). Results were obtained as counts per minute (cpm) per well at each concentration.

[5] = A-375, A375 cell viability, CellTiter Glo, 48 hours, read-out: IC50
[6] = Compound A combined with AZD-8055, each at IC10
[7] = Compound A combined with PLX-4032, each at IC10

Structure (SMILES)	Potency (EC/ECCQ) [1]	fold more potent at autophagy inhibition than QN [1]	autophagy inhibition at 3 μM [1]	pIC50 [2, 5]	Relative Growth Inhibition Compound A [3]	IC10 concentration [3] [nM]	Actual Growth Inhibition [3, 6]	Expected Bliss Additive Inhibition Value [3, 6]	Actual Growth Inhibition [3, 7]	Expected Bliss Additive Inhibition Value [3, 7]	expected (additive) reduction of colony formation [3] [%]	reduction of colony formation [3] [%]	antimalarial activity score [4]	pIC50 [4]	concentration giving a significant increase in mean intensity of autophagic puncta ([1]; U2OS-tfLC3, ten-point dose response, FIG. 8B) [µM]	Effective Concentration (EC) ([1]; concentration with statistically significant increase in puncta number over vehicle control, three hours) [µM]	Potency (EC/ECCQ) ([1]; relative potency score versus chloroquine, greater than one = more potent than CQ)	pIC50 ([2]; A-375, 48 h)
COc1ccc2nc3cc(Cl)ccc3c(NCCCCN3CCN(C)CC3)c2c1 [Example 7, 6-Chloro-2-methoxy-N-(4-(4-methylpiperazin-1-yl)butyl)acridin-9-amine]	150	2	inhibit autophagy	6.40	0.37	5	0.57	0.44	0.64	0.49	49	64	good activity (good activity: IC50<50 ng/mL)	7.64				
CCN(CC)CCCC(C)Nc1c2ccc(Cl)cc2nc2ccc(OC)cc12 (stereo not drawn) [Quinacrine, quinacrine, reference compound]	~60		inhibit autophagy	5.64		64	0.54		0.59			59			0.25	0.25		
CN1CCN(CCNc2c3c(nc4cc(Cl)ccc24)CCCC3)CC1 [Example 27, 6-Chloro-N-(2-(4-methylpiperazin-1-yl)ethyl)-1,2,3,4-tetrahydroacridin-9-amine]			inhibit autophagy		0.37	2	0.50	0.44	0.62	0.49	49	62	low activity (low activity: IC50 50-1000 ng/mL)	6.88			3	4.61

— US20170000784A1, “Autophagy Inhibitors” (priority 2013, published 2017)
